Measurements as given in patent publication US20150344444A1, “BET-PROTEIN-INHIBITING DIHYDROXYQUINOXALINONES” (BAYER PHARMA AKTIENGESELLSCHAFT, priority 2012, published 2015).

Legend:
[1] = molecular target: T1, BRD4 Bromo Domain 2 [BRD4(2)] (Homo sapiens, UniProt O60885); experiment: BRD4(2)/acetylated peptide H4 binding assay (TR-FRET); conditions: inhibition of interaction between His6-tagged BRD4(2) (amino acids 357-445) and acetylated histone H4 peptide
T1 construct: N-terminally His6-tagged BRD4(2) (amino acids 357-445); made in house; host or cells: E. coli
Source text: Protein-Protein Interaction Assay: BRD4/Acetylated Peptide H4 Binding Assay
2. Assay Description for BRD4 Bromo Domain 2 [BRD4(2)]
To assess the BRD4(2) binding strength of the substances described in this application, the ability thereof to inhibit the interaction between BRD4(2) and acetylated histone H4 in a dose-dependent manner was quantified.
For this purpose, a time-resolved fluorescence resonance energy transfer (TR-FRET) assay was used, which measures the binding between N-terminally His6-tagged BRD4(2) (amino acids 357-445) and a synthetic acetylated histone H4 (Ac-H4) peptide with sequence SGRGK(Ac)GGK(Ac)GLGK(Ac)GGAK(Ac)RHRKVLRDNGSGSK-biotin. The recombinant BRD4(2) protein produced in house according to Filippakopoulos et al., Cell, 2012, 149:214-231 was expressed in E. coli and purified by means of (Ni-NTA) affinity and (Sephadex G-75) size exclusion chromatography. The Ac-H4 peptide can be purchased, for example, from Biosyntan (Berlin, Germany).
In the assay, typically 11 different concentrations of each substance (0.1 nM, 0.33 nM, 1.1 nM, 3.8 nM, 13 nM, 44 nM, 0.15 μM, 0.51 μM, 1.7 μM, 5.9 μM and 20 μM) were analysed as duplicates on the same microtitre plate. For this purpose, 100-fold concentrated solutions in DMSO were prepared by serial dilutions (1:3.4) of a 2 mM stock solution into a clear, 384-well microtitre plate (Greiner Bio-One, Frickenhausen, Germany). From this, 50 nl were transferred into a black test plate (Greiner Bio-One, Frickenhausen, Germany). The test was started by the addition of 2 μl of a 2.5-fold concentrated BRD4(2) solution (final concentration typically 100 nM in the 5 μl of reaction volume) in aqueous assay buffer [50 mM HEPES pH 7.5, 50 mM sodium chloride (NaCl); 50 mM potassium fluoride (KF); 0.25 mM CHAPS and 0.05% serum albumin (BSA)] to the substances in the test plate. This was followed by a 10-minute incubation step at 22° C. for the pre-equilibration of putative complexes between BRD4(2) and the substances.
The mixture was then incubated in the dark at 22° C. for one hour and then at 4° C. for at least 3 hours and for no longer than overnight. The formation of BRD4(2)/Ac-H4 complexes was determined by the measurement of the resonance energy transfer from the streptavidin-Eu chelate to the anti-6His-XL665 antibody present in the reaction. For this purpose, the fluorescence emission was measured at 620 nm and 665 nm after excitation at 330-350 nm in a TR-FRET measuring instrument, for example a Rubystar or Pherastar (both from BMG Lab Technologies, Offenburg, Germany) or a Viewlux (Perkin-Elmer). The ratio of the emissions at 665 nm and at 622 nm was taken as an indicator of the amount of BRD4(2)/Ac-H4 complexes formed.
The data (ratios) obtained were normalized, with 0% inhibition corresponding to the mean from the measurements for a set of controls (typically 32 data points) in which all the reagents were present. In these, in place of test substances, 50 nl of DMSO (100%) were used Inhibition of 100% corresponded to the mean from the measurements for a set of controls (typically 32 data points) in which all the reagents except BRD4(2) were present. The IC50 was determined by regression analysis based on a 4-parameter equation (minimum, maximum, IC50, Hill; Y=max+(min−max)/(1+(X/IC50)Hill)).

MOLP-8 cells = experiment: MOLP-8 cell proliferation assay (alamarBlue); assay type: cell-based; conditions: inhibition of cell proliferation, 120 hours, human multiple myeloma cell line
Outline: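 MOLP-8 myeloma cells in RPMI1640/20% FCS were treated with compound from 1E-5 to 1E-8 M for 120 h at 37 °C. Proliferation was measured by alamarBlue fluorescence (ex 530, em 590 nm), and the reading taken before dosing was subtracted. IC50 is relative to buffer-treated cells.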

MOLM-13 cells = experiment: MOLM-13 cell proliferation assay (alamarBlue); assay type: cell-based; conditions: inhibition of cell proliferation, 96 hours, human AML cell line
Outline: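 MOLM-13 AML cells (4000/well, RPMI1640 + 10% FCS) treated 96 h at 37 °C with 1E-5 to 1E-8 M compound. Proliferation by alamarBlue fluorescence (ex 530/em 590), pre-treatment reading subtracted; IC50 versus buffer-treated cells.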

Structure (SMILES)	IC50 [1] [µM]	IC50 (MOLM-13 cells) [µM]	IC50 (MOLP-8 cells) [µM]
C[C@@H]1C(=O)N(C)c2ccc(Nc3ccc(C(=O)N4CCOCC4)cc3)cc2N1C1CCOCC1 [Example 27, (3R)-1,3-dimethyl-6-{[4-(morpholin-4-ylcarbonyl)phenyl]amino}-4-(tetrahydro-2H-pyran-4-yl)-3,4-dihydroquinoxalin-2(1H)-one]	0.419	1.95	1.13
C[C@@H]1C(=O)N(C)c2ccc(Nc3ccc(C(=O)NCC4COC4)cc3)cc2N1C1CCCCCC1 [Example 25, 4-{[(3R)-4-cycloheptyl-1,3-dimethyl-2-oxo-1,2,3,4-tetrahydroquinoxalin-6-yl]amino}-N-(oxetan-3-ylmethyl)benzamide]	0.357	1.36	1.36
COc1ccc(CN2c3cc(Nc4ccc(S(=O)(=O)N5CCN(C(C)C)CC5)cc4)ccc3N(C)C(=O)[C@H]2C)cc1 [Example 44, (3R)-4-(4-methoxybenzyl)-1,3-dimethyl-6-[(4-{[4-(propan-2-yl)piperazin-1-yl]sulphonyl}phenyl)amino]-3,4-dihydroquinoxalin-2(1H)-one]	0.073	0.34	0.101
COc1cc(C(=O)NC2CCC(N3CCN(CC4CC4)CC3)CC2)ccc1Nc1ccc2c(c1)N(C1CCOCC1)[C@H](C)C(=O)N2C (stereo partly drawn) [Example 37, N-{4-[4-(cyclopropylmethyl)piperazin-1-yl]cyclohexyl}-4-{[(3R)-1,3-dimethyl-2-oxo-4-(tetrahydro-2H-pyran-4-yl)-1,2,3,4-tetrahydroquinoxalin-6-yl]amino}-3-methoxybenzamide]	0.41	1.08	0.479
COc1ccc(CN2c3cc(Nc4ccc(C(=O)N5CC6(COC6)C5)cc4)ccc3N(C)C(=O)[C@H]2C)cc1 [Example 20, (3R)-4-(4-methoxybenzyl)-1,3-dimethyl-6-{[4-(2-oxa-6-azaspiro[3.3]hept-6-ylcarbonyl)phenyl]amino}-3,4-dihydroquinoxalin-2(1H)-one]	0.043	0.351	0.12
C[C@@H]1C(=O)N(C)c2ccc(Nc3ccc(S(=O)(=O)N(C)C)cc3)cc2N1Cc1ccccc1 [Example 14, 4-{[(3R)-4-benzyl-1,3-dimethyl-2-oxo-1,2,3,4-tetrahydroquinoxalin-6-yl]amino}-N,N-dimethylbenzenesulphonamide]	0.078	0.233	0.115
C[C@@H]1C(=O)N(C)c2ccc(Nc3ccc(C(=O)N4CC5(CCS5(=O)=O)C4)cc3)cc2N1C1CCOCC1 [Example 31, (3R)-6-({4-[(1,1-dioxido-1-thia-6-azaspiro[3.3]hept-6-yl)carbonyl]phenyl}amino)-1,3-dimethyl-4-(tetrahydro-2H-pyran-4-yl)-3,4-dihydroquinoxalin-2(1H)-one]	0.126	1.79	1.25

Second part, led by results:

IC50 [1] [µM]	IC50 (MOLM-13 cells) [µM]	Structure (SMILES)	IC50 (MOLP-8 cells) [µM]
0.386	> 10	C[C@@H]1C(=O)N(C)c2ccc(Nc3ccc(C(=O)NC4CCC(N5CCN(CC6CC6)CC5)CC4)cc3)cc2N1Cc1c(F)cccc1F (stereo in doubt) [Example 40, N-{4-[4-(cyclopropylmethyl)piperazin-1-yl]cyclohexyl}-4-{[4-(2,6-difluorobenzyl)-1,3-dimethyl-2-oxo-1,2,3,4-tetrahydroquinoxalin-6-yl]amino}benzamide]	6.62
0.047	0.3	C[C@@H]1C(=O)N(C)c2ccc(Nc3ccc(C(=O)N4CCOCC4)cc3)cc2N1Cc1ccccc1 [Example 12, (3R)-4-benzyl-1,3-dimethyl-6-{[4-(morpholin-4-ylcarbonyl)phenyl]amino}-3,4-dihydroquinoxalin-2(1H)-one]	0.098
0.262	2.85	C[C@@H]1C(=O)N(C)c2ccc(Nc3ccc(C(=O)NC4CCN(C)CC4)cc3)cc2N1Cc1c(F)cccc1F (stereo in doubt) [Example 39, 4-{[4-(2,6-difluorobenzyl)-1,3-dimethyl-2-oxo-1,2,3,4-tetrahydroquinoxalin-6-yl]amino}-N-(1-methylpiperidin-4-yl)benzamide]	1.74
0.351	1.7	C[C@@H]1C(=O)N(C)c2ccc(Nc3ccc(C(=O)NCCN4CCN(C)CC4)cc3)cc2N1C1CCOCC1 [Example 30, 4-{[(3R)-1,3-dimethyl-2-oxo-4-(tetrahydro-2H-pyran-4-yl)-1,2,3,4-tetrahydroquinoxalin-6-yl]amino}-N-[2-(4-methylpiperazin-1-yl)ethyl]benzamide]	0.869
